Assay results taken from PMC6311682, “Design, Synthesis, and Biological Evaluation of 2-Nitroimidazopyrazin-one/-es with Antitubercular and Antiparasitic Activity” (Journal of Medicinal Chemistry, 2018).

system: not listed separately; assay: Caco-2 monolayer bidirectional permeability assay; settings: human, Caco-2, pH 7.4

SMILES | Papp A→B at 2 h, 2 µM | Papp A→B at 2 h, 2 μM | Papp B→A at 2 h, 2 µM
O=c1c2nc([N+](=O)[O-])cn2ccn1Cc1ccc(OC(F)(F)F)cc1 [17c, 2-Nitro-7-(4-(trifluoromethoxy)benzyl)imidazo[1,2-a]pyrazin-8(7H)-one] | 25 ×10⁻⁶ cm/s | > 20 ×10⁻⁶ cm/s | 22 ×10⁻⁶ cm/s
O=c1c2nc([N+](=O)[O-])cn2ccn1Cc1cccc(OC(F)(F)F)c1 [17f, 2-Nitro-7-(3-(trifluoromethoxy)benzyl)imidazo[1,2-a]pyrazin-8(7H)-one] | 24 ×10⁻⁶ cm/s | > 20 ×10⁻⁶ cm/s | 24 ×10⁻⁶ cm/s

system: E. histolytica (HM1:IMSS); assay: ATP-bioluminescence cell growth and survival assay, E. histolytica trophozoites; assay type: cell-based; settings: Entamoeba histolytica, read-out: antiparasitic IC50 E. histolytica

SMILES | IC50
Cc1cccc(Cn2ccn3cc([N+](=O)[O-])nc3c2=O)c1 [17g, 7-(3-Methylbenzyl)-2-nitroimidazo[1,2-a]pyrazin-8(7H)-one] | > 50 µM
O=c1c2nc([N+](=O)[O-])cn2ccn1Cc1cccc(C(F)(F)F)c1 [17h, 2-Nitro-7-(3-(trifluoromethyl)benzyl)imidazo[1,2-a]pyrazin-8(7H)-one] | > 50 µM

same assay, conditions: Entamoeba histolytica, read-out: antiparasitic pIC50 ± SE E. histolytica (converted)

SMILES | IC50
Cc1cccc(Cn2ccn3cc([N+](=O)[O-])nc3c2=O)c1 [17g, 7-(3-Methylbenzyl)-2-nitroimidazo[1,2-a]pyrazin-8(7H)-one] | > 50.1 µM
O=c1c2nc([N+](=O)[O-])cn2ccn1Cc1cccc(C(F)(F)F)c1 [17h, 2-Nitro-7-(3-(trifluoromethyl)benzyl)imidazo[1,2-a]pyrazin-8(7H)-one] | > 50.1 µM

system: L. donovani MHOM/IN/80/DD8 (ATCC50212); assay: L. donovani DD8 intracellular (THP-1) amastigote assay; assay type: cell-based; settings: Leishmania donovani, read-out: antiparasitic IC50 L. donovani

SMILES | IC50
O=c1c2nc([N+](=O)[O-])cn2ccn1Cc1ccc(OC(F)(F)F)cc1 [17c, 2-Nitro-7-(4-(trifluoromethoxy)benzyl)imidazo[1,2-a]pyrazin-8(7H)-one] | > 80 µM
O=c1c2nc([N+](=O)[O-])cn2ccn1Cc1cccc(OC(F)(F)F)c1 [17f, 2-Nitro-7-(3-(trifluoromethoxy)benzyl)imidazo[1,2-a]pyrazin-8(7H)-one] | > 80 µM
Cc1cccc(Cn2ccn3cc([N+](=O)[O-])nc3c2=O)c1 [17g, 7-(3-Methylbenzyl)-2-nitroimidazo[1,2-a]pyrazin-8(7H)-one] | > 20 µM
O=c1c2nc([N+](=O)[O-])cn2ccn1Cc1cccc(C(F)(F)F)c1 [17h, 2-Nitro-7-(3-(trifluoromethyl)benzyl)imidazo[1,2-a]pyrazin-8(7H)-one] | > 40 µM

same assay, conditions: Leishmania donovani, read-out: antiparasitic pIC50 ± SE L. donovani (converted)

SMILES | IC50
O=c1c2nc([N+](=O)[O-])cn2ccn1Cc1ccc(OC(F)(F)F)cc1 [17c, 2-Nitro-7-(4-(trifluoromethoxy)benzyl)imidazo[1,2-a]pyrazin-8(7H)-one] | > 79.4 µM
O=c1c2nc([N+](=O)[O-])cn2ccn1Cc1cccc(OC(F)(F)F)c1 [17f, 2-Nitro-7-(3-(trifluoromethoxy)benzyl)imidazo[1,2-a]pyrazin-8(7H)-one] | > 79.4 µM
Cc1cccc(Cn2ccn3cc([N+](=O)[O-])nc3c2=O)c1 [17g, 7-(3-Methylbenzyl)-2-nitroimidazo[1,2-a]pyrazin-8(7H)-one] | > 20 µM
O=c1c2nc([N+](=O)[O-])cn2ccn1Cc1cccc(C(F)(F)F)c1 [17h, 2-Nitro-7-(3-(trifluoromethyl)benzyl)imidazo[1,2-a]pyrazin-8(7H)-one] | > 39.8 µM

system: not listed separately; assay: Plasma protein binding, ultrafiltration method; assay type: in vitro ADME; settings: human plasma, % bound, read-out: PPB (%) (converted)

SMILES | fraction unbound at 0.5 h, 5 µM
O=c1c2nc([N+](=O)[O-])cn2ccn1Cc1ccc(OC(F)(F)F)cc1 [17c, 2-Nitro-7-(4-(trifluoromethoxy)benzyl)imidazo[1,2-a]pyrazin-8(7H)-one] | 0.02
O=c1c2nc([N+](=O)[O-])cn2ccn1Cc1cccc(OC(F)(F)F)c1 [17f, 2-Nitro-7-(3-(trifluoromethoxy)benzyl)imidazo[1,2-a]pyrazin-8(7H)-one] | 0.01

system: not listed separately; assay: Kinetic solubility determination by LC-UV; settings: PBS, pH 7.4, Solubility µM (PBS), PBS pH 7.4, 24 h, room temperature, 1% DMSO

SMILES | solubility at 24 h
O=c1c2nc([N+](=O)[O-])cn2ccn1Cc1ccc(OC(F)(F)F)cc1 [17c, 2-Nitro-7-(4-(trifluoromethoxy)benzyl)imidazo[1,2-a]pyrazin-8(7H)-one] | < 5 µM
O=c1c2nc([N+](=O)[O-])cn2ccn1Cc1cccc(OC(F)(F)F)c1 [17f, 2-Nitro-7-(3-(trifluoromethoxy)benzyl)imidazo[1,2-a]pyrazin-8(7H)-one] | < 5 µM
Cc1cccc(Cn2ccn3cc([N+](=O)[O-])nc3c2=O)c1 [17g, 7-(3-Methylbenzyl)-2-nitroimidazo[1,2-a]pyrazin-8(7H)-one] | < 5 µM

same assay, conditions: water, Solubility µM (H2O), 24 h, room temperature, 1% DMSO

SMILES | solubility at 24 h
O=c1c2nc([N+](=O)[O-])cn2ccn1Cc1ccc(OC(F)(F)F)cc1 [17c, 2-Nitro-7-(4-(trifluoromethoxy)benzyl)imidazo[1,2-a]pyrazin-8(7H)-one] | < 5 µM
O=c1c2nc([N+](=O)[O-])cn2ccn1Cc1cccc(OC(F)(F)F)c1 [17f, 2-Nitro-7-(3-(trifluoromethoxy)benzyl)imidazo[1,2-a]pyrazin-8(7H)-one] | < 5 µM
Cc1cccc(Cn2ccn3cc([N+](=O)[O-])nc3c2=O)c1 [17g, 7-(3-Methylbenzyl)-2-nitroimidazo[1,2-a]pyrazin-8(7H)-one] | < 5 µM

system: not listed separately; assay: Broth microdilution MIC assay, ESKAPE pathogens; assay type: cell-based; settings: S. aureus, E. coli, K. pneumoniae, A. baumannii, P. aeruginosa; read-out: antibacterial MIC ESKAPE

SMILES | MIC
O=c1c2nc([N+](=O)[O-])cn2ccn1Cc1ccc(OC(F)(F)F)cc1 [17c, 2-Nitro-7-(4-(trifluoromethoxy)benzyl)imidazo[1,2-a]pyrazin-8(7H)-one] | > 32 µg/mL
O=c1c2nc([N+](=O)[O-])cn2ccn1Cc1cccc(OC(F)(F)F)c1 [17f, 2-Nitro-7-(3-(trifluoromethoxy)benzyl)imidazo[1,2-a]pyrazin-8(7H)-one] | > 32 µg/mL
Cc1cccc(Cn2ccn3cc([N+](=O)[O-])nc3c2=O)c1 [17g, 7-(3-Methylbenzyl)-2-nitroimidazo[1,2-a]pyrazin-8(7H)-one] | > 32 µg/mL
O=c1c2nc([N+](=O)[O-])cn2ccn1Cc1cccc(C(F)(F)F)c1 [17h, 2-Nitro-7-(3-(trifluoromethyl)benzyl)imidazo[1,2-a]pyrazin-8(7H)-one] | > 32 µg/mL

system: ESKAPE pathogens S. aureus (ATCC 43300), E. coli (ATCC 25922), K. pneumoniae (ATCC 700603), A. baumannii (ATCC 19606), P. aeruginosa (ATCC 27853); assay: Broth microdilution MIC assay, ESKAPE pathogens; assay type: cell-based; settings: not given

SMILES | antibacterial MIC ESKAPE
O=c1c2nc([N+](=O)[O-])cn2ccn1Cc1ccc(OC(F)(F)F)cc1 [17c, 2-Nitro-7-(4-(trifluoromethoxy)benzyl)imidazo[1,2-a]pyrazin-8(7H)-one] | > 32 µg/mL
O=c1c2nc([N+](=O)[O-])cn2ccn1Cc1cccc(OC(F)(F)F)c1 [17f, 2-Nitro-7-(3-(trifluoromethoxy)benzyl)imidazo[1,2-a]pyrazin-8(7H)-one] | > 32 µg/mL
Cc1cccc(Cn2ccn3cc([N+](=O)[O-])nc3c2=O)c1 [17g, 7-(3-Methylbenzyl)-2-nitroimidazo[1,2-a]pyrazin-8(7H)-one] | >32 µg/mL
O=c1c2nc([N+](=O)[O-])cn2ccn1Cc1cccc(C(F)(F)F)c1 [17h, 2-Nitro-7-(3-(trifluoromethyl)benzyl)imidazo[1,2-a]pyrazin-8(7H)-one] | >32 µg/mL

system: M. tuberculosis (H37Rv); assay: M. tuberculosis H37Rv resazurin reduction microplate MIC assay, hypoxic conditions (0.1% oxygen); assay type: cell-based, Mycobacterium tuberculosis; settings: @ 0.06–16 μg/mL

SMILES | M. tuberculosis hypoxia % I
O=c1c2nc([N+](=O)[O-])cn2ccn1Cc1cccc(C(F)(F)F)c1 [17h, 2-Nitro-7-(3-(trifluoromethyl)benzyl)imidazo[1,2-a]pyrazin-8(7H)-one] | 70–90% I @ 0.06–16 μg/mL

same assay, conditions: @ 0.125–8 μg/mL

SMILES | M. tuberculosis hypoxia % I
Cc1cccc(Cn2ccn3cc([N+](=O)[O-])nc3c2=O)c1 [17g, 7-(3-Methylbenzyl)-2-nitroimidazo[1,2-a]pyrazin-8(7H)-one] | 70–90% I @ 0.125–8 μg/mL

same assay, conditions: H37Rv, hypoxia (0.1% oxygen)

SMILES | antibacterial MIC M. tuberculosis hypoxia
O=c1c2nc([N+](=O)[O-])cn2ccn1Cc1ccc(OC(F)(F)F)cc1 [17c, 2-Nitro-7-(4-(trifluoromethoxy)benzyl)imidazo[1,2-a]pyrazin-8(7H)-one] | 1.0 to 4.0 µg/mL
